According to PMC2949462 (Bioorganic & medicinal chemistry, 2010):
“Also recorded” adds a separate entry of the source.

Key:
HIV-1 IIIB = assay: HIV-1 infectivity assay against non-drug-resistant strain in H9 lymphocytes; type: cell-based; conditions: for EC50: concentration that inhibits HIV-1IIIB replication by 50%: H9 lymphocytes, p24, day 6 PI; for anti-HIV activity in words: HIV-1 replication in H9 lymphocytes
uninfected H9 cells = assay: Toxicity to mock-infected H9 cells; type: cell-based; conditions: human, mock-infected (uninfected) H9 T-cells

Structure (SMILES)	EC50: concentration that inhibits HIV-1IIIB replication by 50% (HIV-1 IIIB)	anti-HIV activity in words (HIV-1 IIIB)	IC50 at 6 days (uninfected H9 cells) [µM]
Cc1cc(=O)oc2c3c(ccc12)S(=O)(=O)[C@H](C)[C@H](OC(=O)[C@]12CC[C@](C)(C(=O)O1)C2(C)C)[C@@H]3OC(=O)[C@]12CC[C@](C)(C(=O)O1)C2(C)C [Compound 12, (8R,9R,10R)-1′-Sulfone-2′,4-dimethyl-3′,4′-di-O-(−)-camphanoyl-(+)-cis-khellactone]	no suppression	–	–
Cc1cc(=O)oc2c3c(ccc12)S[C@H](C)[C@H](OC(=O)[C@]12CC[C@](C)(C(=O)O1)C2(C)C)[C@@H]3OC(=O)[C@]12CC[C@](C)(C(=O)O1)C2(C)C [Compound 8, (2′R,3′R,4′R)-1′-Thia-2′,4-Dimethyl-3′,4′-di-O-(−)-camphanoyl-(+)-cis-khellactone]	–	much weaker inhibitory activity	–
Cc1cc(=O)oc2c3c(ccc12)O[C@H](C)[C@@H](OC(=O)[C@]12CC[C@](C)(C(=O)O1)C2(C)C)[C@H]3OC(=O)[C@]12CC[C@](C)(C(=O)O1)C2(C)C [Compound 5b, (2′R,3′R,4′S)-2′,4-Dimethyl-3′,4′-di-O-(−)-camphanoyl-(+)-cis-khellactone]	–	low potency	–
Cc1cc(=O)oc2c3c(ccc12)OC(C)(C)[C@H](OC(=O)[C@]12CC[C@](C)(C(=O)O1)C2(C)C)[C@@H]3OC(=O)[C@]12CC[C@](C)(C(=O)O1)C2(C)C [Compound 2]	–	–	> 39.2
Cc1cc(=O)oc2c3c(ccc12)S[C@H](C)[C@@H](OC(=O)[C@]12CC[C@](C)(C(=O)O1)C2(C)C)[C@H]3OC(=O)[C@]12CC[C@](C)(C(=O)O1)C2(C)C [Compound 7b, (2′R,3′S,4′S) -1′-Thia-2′,4-dimethyl-3′,4′-di-O-(−)-camphanoyl-(+)-cis-khellactone]	no suppression	inactivity	–
Cc1cc(=O)oc2c3c(ccc12)O[C@H](C)[C@H](OC(=O)[C@]12CC[C@](C)(C(=O)O1)C2(C)C)[C@@H]3OC(=O)[C@]12CC[C@](C)(C(=O)O1)C2(C)C [Compound 6, (2′R,3′S,4′R)-2′,4-Dimethyl-3′,4′-di-O-(−)-camphanoyl-(+)-cis-khellactone]	no suppression	inactive at the test concentrations; also recorded: much weaker inhibitory activity	–
Cc1cc(=O)oc2c3c(ccc12)[S+]([O-])[C@@H](C)C(OC(=O)C12CCC(C)(C(=O)O1)C2(C)C)C3OC(=O)C12CCC(C)(C(=O)O1)C2(C)C (stereo partly drawn) [9a+9b, 1′-Sulfoxide-2′,4-dimethyl-3′,4′-di-O-(−)-camphanoyl-(+)-cis-khellactone]	no suppression	–	–
